In patent US20050256103A1, “Indole derivative having piperidine ring” (Eisai Co., Ltd., priority 2004, published 2005):
Where two headings read alike, the source gives them in different places.

Key:
5-HT1A receptor = molecular target: T1, 5-HT1A receptor (Sus scrofa, UniProt A0A4X1UTF5); test: Affinity for serotonin 1A receptor: inhibition of [3H]MPPF binding in swine hippocampal membrane fraction; conditions: for IC50: swine hippocampal membrane, 37°C 30 min; for L/H ratio: low affinity IC50 divided by high affinity IC50, 1 or smaller = no intrinsic activity, 2 or greater = intrinsic activity
T1 construct: Swine hippocampus was homogenized in a 50 mM Tris-Hcl buffer; from tissue; host or cells: swine hippocampus, membrane fraction
T1 sequence (A0A4X1UTF5 1-422): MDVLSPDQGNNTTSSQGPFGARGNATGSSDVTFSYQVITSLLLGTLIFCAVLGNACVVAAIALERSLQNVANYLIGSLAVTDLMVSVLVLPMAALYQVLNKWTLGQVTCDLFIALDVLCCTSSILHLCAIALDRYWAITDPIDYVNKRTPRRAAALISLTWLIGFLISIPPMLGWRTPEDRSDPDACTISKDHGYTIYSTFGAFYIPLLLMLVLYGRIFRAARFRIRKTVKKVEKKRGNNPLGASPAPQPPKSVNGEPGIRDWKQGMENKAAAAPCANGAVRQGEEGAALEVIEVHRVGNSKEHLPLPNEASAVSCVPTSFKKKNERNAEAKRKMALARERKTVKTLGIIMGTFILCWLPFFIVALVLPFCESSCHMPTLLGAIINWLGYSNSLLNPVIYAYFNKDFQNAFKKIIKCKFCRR
Source text: (1) The affinity of a test substance for a 5-HT1A receptor was examined by an inhibition experiment, in which the inhibitory effect of the test substance against the binding of [^3H]-4-(2′-methoxy)phenyl-1-(2′-(N-2″-pyridinyl)-p-fluorobenzamido)ethyl-piperazine (MPPF) that selectively binds to the 5-HT1A receptor in a swine hippocampal membrane fraction was examined. The 5-HT1A receptor that is a G-protein binding receptor becomes a G-protein binding state with addition of MgCl2. In contrast, it becomes a G-protein non-binding state with addition of guanylylimido diphosphate (Gpp(NH)p). […] Thus, both the affinity of a test substance to the receptor that was in a state of not binding to the G-protein and the affinity of the test substance to the receptor that was in a state of binding to the G-protein were obtained. Then, the obtained values were compared to each other, so as to estimate the level of the intrinsic activity of the test substance. Theoretically, when the value (L/H) obtained by dividing the affinity of a test substance to the receptor that is in a low affinity state (IC50 value) by the affinity of a test substance to the receptor that is in a high affinity state (IC50 value) is 1 or less, the intrinsic activity thereof is zero. The greater this value, the higher the intrinsic activity that can be obtained.
Swine hippocampus was homogenized in a 50 mM Tris-Hcl buffer (pH 7.4; hereinafter referred to as buffer A) that had been cooled on ice. The suspension was centrifuged at 40,000×g for 15 minutes. The obtained pellet was suspended in buffer solution A, and the thus obtained solution was then centrifuged at 40,000×g for 15 minutes. The same operation was repeated 2 or 3 times. The finally obtained pellet was suspended in a buffer solution A in an amount 10 times the wet weight of the swine hippocampus, so as to obtain a membrane fraction. The obtained membrane fraction was stored at −80° C. until use.
A mixture (0.5 ml) used for incubation comprised an appropriate amount of the membrane fraction, a test substance with a desired concentration, MgCl2 (final concentration: 10 mM) or Gpp(NH)p (final concentration: 1 mM), [^3H]MPPF (final concentration: 0.5 nM), dimethyl sulfoxide (final concentration: 1% (v/v)), and a 50 mM Tris-Hcl buffer (pH 7.4). The reaction was initiated with addition of the membrane fraction, and the mixture was incubated at 37° C. for 30 minutes. After completion of the incubation, the mixture was subjected to vacuum filtration with a glass filter, using Cell Harvester. The filter was washed with buffer solution A that had been cooled on ice. Thereafter, radioactivity binding to the receptor was measured with a liquid scintillation counter. Non-specific binding was defined as binding detected in the presence of 10 μM WAY-100,635.

serotonin 1A receptor = molecular target: T2, serotonin 1A receptor (Mus musculus, UniProt Q64264); test: Antagonistic effect on serotonin 1A receptor agonist (8-OH-DPAT)-induced hypothermia in mouse; type: in vivo; conditions: CD-1 (ICR) male mice; inhibition of hypothermia by 8-OH-DPAT 0.5 mg/kg sc; test substance 15 minutes before agonist
T2 construct: into the rectum of CD-1 (ICR) male mice (25-45 g); from tissue; host or cells: living CD-1 (ICR) male mice (in vivo)
T2 sequence (Q64264 1-421): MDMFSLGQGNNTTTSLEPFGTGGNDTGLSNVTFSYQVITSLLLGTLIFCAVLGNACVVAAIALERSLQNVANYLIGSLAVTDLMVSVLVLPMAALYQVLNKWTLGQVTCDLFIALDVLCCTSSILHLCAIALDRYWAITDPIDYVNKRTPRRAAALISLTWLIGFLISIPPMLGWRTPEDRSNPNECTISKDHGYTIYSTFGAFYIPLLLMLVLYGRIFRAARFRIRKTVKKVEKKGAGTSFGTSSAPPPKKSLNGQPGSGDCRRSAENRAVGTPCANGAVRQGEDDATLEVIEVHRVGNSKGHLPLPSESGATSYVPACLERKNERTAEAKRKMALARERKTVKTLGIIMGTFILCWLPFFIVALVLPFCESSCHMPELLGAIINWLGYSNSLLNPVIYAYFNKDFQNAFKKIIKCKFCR
Procedure: (1) A thermistor probe was inserted at a depth of approximately 2 cm into the rectum of CD-1 (ICR) male mice (25-45 g), so as to measure the body temperature thereof. Body temperature is decreased by subcutaneous administration of serotonin 1A receptor agonist (8-hydroxy-dipropylaminotetralin (8-OH-DPAT) 0;5 mg/kg. Since a serotonin 1A antagonist inhibits such action, the antagonistic effect of a test substance to a serotonin 1A receptor was evaluated using the inhibitory effect of the hypothermia as an index. The test results are shown in Table 2 indicated below. A test substance was administered 15 minutes before the administration of the serotonin 1A agonist. A serotonin 1A partial agonist alone decreases the body temperature, depending on the degree of the agonistic action thereof. In addition, it has a weak antagonistic effect on 8-OH-DPAT-induced hypothermia.

[1] = [3H]MPPF 0.5 nM, receptor in high affinity (G-protein binding, MgCl2 10 mM) state, read-out: High affinity IC50
[2] = [3H]MPPF 0.5 nM, receptor in low affinity (G-protein non-binding, Gpp(NH)p 1 mM) state, read-out: Low affinity IC50

Compound | IC50 (5-HT1A receptor; [1]) [nM] | IC50 (5-HT1A receptor; [2]) [nM] | L/H ratio (5-HT1A receptor) | ED50 (serotonin 1A receptor) | IC50 (5-HT1A receptor; High affinity IC50, [3H]MPPF 0.5 nM, receptor in high affinity (G-protein binding, MgCl2 10 mM) state) [nM] | IC50 (5-HT1A receptor; Low affinity IC50, [3H]MPPF 0.5 nM, receptor in low affinity (G-protein non-binding, Gpp(NH)p 1 mM) state) [nM]
COc1ccc2c(=O)c(C)c(C)oc2c1CCN1CCC(n2ccc3ccc(C(N)=O)cc32)CC1 [Compound 36, 1-{1-[2-(7-methoxy-2,3-dimethyl-4-oxo-4H-chromen-8-yl)ethyl]piperidin-4-yl}-1H-indole-6-carboxamide] | 0.26 | 0.14 | 0.5 | 0.2 mg/kg, sc | – | –
COc1ccc2ncccc2c1CCN1CCC(n2ccc3ccc(C(N)=O)cc32)CC1 [Compound 30, 1-{1-[2-(6-methoxyquinolin-5-yl)ethyl]piperidin-4-yl}-1H-indole-6-carboxamide] | 0.2 | 0.19 | 1 | 0.62 mg/kg, sc | – | –
CCc1nc2ccc(OC)c(CCN3CCC(n4ccc5ccc(C(N)=O)cc54)CC3)c2o1 [Compound 5] | 0.57 | 0.45 | 0.8 | 0.24 mg/kg, sc | – | –
COc1cc2onc(C)c2cc1CCN1CCC(n2ccc3ccc(C(N)=O)cc32)CC1 [Compound 2, 1-{1-[2-(6-methoxy-3-methylbenzo[d]isoxazol-5-yl)ethyl]piperidin-4-yl}-1H-indole-6-carboxamide] | 0.27 | 0.35 | 1.3 | 0.4 mg/kg, sc | – | –
COc1ccc2ccccc2c1CCN1CCC(n2ccc3ccc(C(N)=O)cc32)CC1 [Compound 44, 1-{1-[2-(2-methoxynaphthalen-1-yl)ethyl]piperidin-4-yl}-1H-indole-6-carboxamide] | 0.4 | 0.47 | 1.2 | 0.41 mg/kg, sc | – | –
COc1cc2ccccc2cc1CCN1CCC(n2ccc3ccc(C(N)=O)cc32)CC1 [Compound 45, 1-{1-[2-(3-methoxynaphthalen-2-yl)ethyl]piperidin-4-yl}-1H-indole-6-carboxamide] | 0.58 | 0.69 | 1.2 | 0.26 mg/kg, sc | – | –
COc1cc2cccnc2cc1CCN1CCC(n2ccc3ccc(C(N)=O)cc32)CC1 [Compound 51, 1-{1-[2-(6-methoxyquinolin-7-yl)ethyl]piperidin-4-yl}-1H-indole-6-carboxamide] | – | – | 0.9 | 0.66 mg/kg, sc | 0.18 | 0.17

Now from value to compound, other results behind:

IC50 (5-HT1A receptor; [1]) [nM] | IC50 (5-HT1A receptor; [2]) [nM] | L/H ratio (5-HT1A receptor) | ED50 (serotonin 1A receptor) | Compound | IC50 (5-HT1A receptor; High affinity IC50, [3H]MPPF 0.5 nM, receptor in high affinity (G-protein binding, MgCl2 10 mM) state) [nM] | IC50 (5-HT1A receptor; Low affinity IC50, [3H]MPPF 0.5 nM, receptor in low affinity (G-protein non-binding, Gpp(NH)p 1 mM) state) [nM]
0.41 | 0.3 | 0.7 | 0.38 mg/kg, sc | COc1ccc2oc(C)nc2c1CCN1CCC(n2ccc3ccc(C(N)=O)cc32)CC1 [Compound 7, 1-{1-[2-(5-methoxy-2-methylbenzoxazol-4-yl)ethyl]piperidin-4-yl)-1H-indole-6-carboxamide] | – | –
0.26 | 0.25 | 1 | 0.04 mg/kg, sc | COc1ccc2c(c1CCN1CCC(n3ccc4ccc(C(N)=O)cc43)CC1)OCCO2 [Compound 32, 1-{1-[2-(6-methoxy-2,3-dihydrobenz[1,4]dioxin-5-yl)ethyl]piperidin-4-yl}-1H-indole-6-carboxamide] | – | –
0.23 | 0.26 | 1.1 | 0.42 mg/kg, sc | COc1ccc2sc(C)nc2c1CCN1CCC(n2ccc3ccc(C(N)=O)cc32)CC1 [Compound 27, 1-{1-[2-(5-methoxy-2-methylbenzothiazol-4-yl)ethyl]piperidin-4-yl}-1H-indole-6-carboxamide] | – | –
0.22 | 0.2 | 0.9 | 0.5 mg/kg, sc | COc1cc2c(cc1CCN1CCC(n3ccc4ccc(C(N)=O)cc43)CC1)N(C(C)=O)CCC2 [Compound 52, 1-{1-[2-(1-acetyl-6-methoxy-1,2,3,4-tetrahydroquinolin-7-yl)ethyl]piperidin-4-yl}-1H-indole-6-carboxamide] | – | –
0.18 | 0.13 | 0.7 | 0.84 mg/kg, sc | COc1ccc2c(c1CCN1CCC(n3ccc4ccc(C(N)=O)cc43)CC1)CCCN2C(C)=O [Compound 54, 1-{1-[2-(1-acetyl-6-methoxy-1,2,3,4-tetrahydroquinolin-5-yl)ethyl]piperidin-4-yl}-1H-indole-6-carboxamide] | – | –
